Measurements as given in ChEMBL document CHEMBL5154816, “Structure-Based Discovery and Optimization of Furo[3,2-c]pyridin-4(5H)-one Derivatives as Potent and Second Bromodomain (BD2)-Selective Bromo and Extra Terminal Domain (BET) Inhibitors” (J Med Chem, 2022).

Experiments:
[1] = target: T1, Bromodomain-containing protein 4 (Homo sapiens, UniProt O60885); experiment: Inhibition of C-terminal His6-tagged BRD4 BD2 (unknown origin) using H-YSGRGK(Ac)GGK(Ac)GLGK(Ac)-GGAK(Ac)RHRK-Biotin-OH as substrate incubated for 1 hrs by HTRF assay
Homo sapiens = organism: Homo sapiens; experiment: Selectivity index, ratio of IC50 for BRD4 BD1 (unknown origin) to IC50 of BRD4 BD2 (unknown origin)
[2] = target: T1, Bromodomain-containing protein 4; experiment: Inhibition of C-terminal His6-tagged BRD4 BD1 (unknown origin) using H-YSGRGK(Ac)GGK(Ac)GLGK(Ac)-GGAK(Ac)RHRK-Biotin-OH as substrate incubated for 1 hrs by HTRF assay
[3] = target: SWI/SNF-related matrix-associated actin-dependent regulator of chromatin subfamily A member 2 (Homo sapiens) (UniProt P51531); experiment: Binding affinity to SMARCA2B (unknown origin) assessed as change in melting temperature at 100 uM incubated for 30 mins by thermal shift assay
Chain of SWI/SNF-related matrix-associated actin-dependent regulator of chromatin subfamily A member 2 (Homo sapiens) (P51531 whole entry): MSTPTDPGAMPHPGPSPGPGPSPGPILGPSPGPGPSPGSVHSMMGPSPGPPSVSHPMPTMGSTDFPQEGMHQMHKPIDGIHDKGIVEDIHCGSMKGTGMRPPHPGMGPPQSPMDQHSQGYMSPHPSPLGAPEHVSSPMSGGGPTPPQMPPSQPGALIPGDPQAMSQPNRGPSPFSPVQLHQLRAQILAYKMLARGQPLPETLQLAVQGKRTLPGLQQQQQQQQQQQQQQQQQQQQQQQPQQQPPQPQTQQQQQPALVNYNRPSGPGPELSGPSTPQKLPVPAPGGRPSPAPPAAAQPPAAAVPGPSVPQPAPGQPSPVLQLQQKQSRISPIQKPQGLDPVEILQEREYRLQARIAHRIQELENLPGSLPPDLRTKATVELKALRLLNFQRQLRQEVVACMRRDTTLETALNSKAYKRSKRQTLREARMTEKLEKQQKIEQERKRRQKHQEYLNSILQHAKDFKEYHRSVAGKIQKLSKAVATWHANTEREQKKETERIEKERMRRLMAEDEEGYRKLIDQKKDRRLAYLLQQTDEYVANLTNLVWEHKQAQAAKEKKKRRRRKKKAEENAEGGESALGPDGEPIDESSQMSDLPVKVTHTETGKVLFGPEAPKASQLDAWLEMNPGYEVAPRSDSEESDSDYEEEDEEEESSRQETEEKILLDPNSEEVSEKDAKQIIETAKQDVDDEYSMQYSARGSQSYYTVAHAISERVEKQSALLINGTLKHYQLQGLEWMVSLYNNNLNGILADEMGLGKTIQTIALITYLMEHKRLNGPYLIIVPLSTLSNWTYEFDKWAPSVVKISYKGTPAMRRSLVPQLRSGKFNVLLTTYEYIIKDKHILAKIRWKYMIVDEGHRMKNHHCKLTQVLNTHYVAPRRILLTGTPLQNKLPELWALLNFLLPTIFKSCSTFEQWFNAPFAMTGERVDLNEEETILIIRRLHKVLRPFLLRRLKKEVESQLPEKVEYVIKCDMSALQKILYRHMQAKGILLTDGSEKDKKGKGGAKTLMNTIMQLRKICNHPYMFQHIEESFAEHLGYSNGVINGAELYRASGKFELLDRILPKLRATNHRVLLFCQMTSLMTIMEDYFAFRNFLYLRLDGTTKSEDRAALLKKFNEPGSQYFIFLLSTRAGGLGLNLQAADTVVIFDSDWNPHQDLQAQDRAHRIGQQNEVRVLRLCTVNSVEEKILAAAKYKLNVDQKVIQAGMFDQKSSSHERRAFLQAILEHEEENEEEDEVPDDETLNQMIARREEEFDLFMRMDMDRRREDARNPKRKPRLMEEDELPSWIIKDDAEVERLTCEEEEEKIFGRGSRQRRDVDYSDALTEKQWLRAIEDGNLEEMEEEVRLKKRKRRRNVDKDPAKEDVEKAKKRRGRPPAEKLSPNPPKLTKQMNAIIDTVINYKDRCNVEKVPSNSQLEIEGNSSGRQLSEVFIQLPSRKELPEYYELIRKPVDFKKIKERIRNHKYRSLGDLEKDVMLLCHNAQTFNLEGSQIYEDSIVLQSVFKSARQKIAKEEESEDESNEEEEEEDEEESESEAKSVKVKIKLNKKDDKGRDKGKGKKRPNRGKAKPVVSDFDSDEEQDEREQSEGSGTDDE

[4] = target: SWI/SNF-related matrix-associated actin-dependent regulator of chromatin subfamily A member 2 (Homo sapiens) (UniProt P51531); experiment: Binding affinity to SMARCA2A (unknown origin) assessed as change in melting temperature at 100 uM incubated for 30 mins by thermal shift assay
[5] = target: PH-interacting protein (Homo sapiens) (UniProt Q8WWQ0); experiment: Binding affinity to PHIP-2 (unknown origin) assessed as change in melting temperature at 100 uM incubated for 30 mins by thermal shift assay
[6] = Cytotoxicity against human HFL1 cells assessed as cell growth inhibition incubated for 72 hrs by Cell titre Glo-luminiscence cell viability assay; assay type: toxicity, cell-based
[7] = Metabolic stability in human liver microsomes assessed as intrinsic clearance at 1 uM measured up to 60 mins in presence of NADPH by HPLC-MS/MS analysis; assay type: ADME, Microsome; conditions: 1 h
[8] = Metabolic stability in human hepatocytes assessed as hepatic clearance at 1 uM measured up to 60 mins in presence of NADPH by HPLC-MS/MS analysis; assay type: ADME, cell-based, Hepatocyte
[9] = Metabolic stability in human liver microsomes assessed as half life at 1 uM measured up to 60 mins in presence of NADPH by HPLC-MS/MS analysis; assay type: ADME, Microsome
[10] = Metabolic stability in rat hepatocytes assessed as hepatic clearance at 1 uM measured up to 60 mins in presence of NADPH by HPLC-MS/MS analysis; assay type: ADME, cell-based, Hepatocyte
[11] = Metabolic stability in rat liver microsomes assessed as intrinsic clearance at 1 uM measured up to 60 mins in presence of NADPH by HPLC-MS/MS analysis; assay type: ADME, Microsome; conditions: 1 h
[12] = Metabolic stability in human hepatocytes assessed as hepatic extraction ratio at 1 uM measured up to 60 mins in presence of NADPH by HPLC-MS/MS analysis; assay type: ADME, cell-based, Hepatocyte; conditions: read-out: ERH
[13] = Metabolic stability in rat hepatocytes assessed as hepatic extraction ratio at 1 uM measured up to 60 mins in presence of NADPH by HPLC-MS/MS analysis; assay type: ADME, cell-based, Hepatocyte; conditions: read-out: ERH
[14] = Metabolic stability in rat liver microsomes assessed as half life at 1 uM measured up to 60 mins in presence of NADPH by HPLC-MS/MS analysis; assay type: ADME, Microsome

Cc1cc(-c2cc3c(=O)n(C)cc(-c4cc(CS(=O)(=O)C(C)(C)C)ccc4Oc4ccc(F)cc4F)c3o2)cc(C)c1OCCO
IC50 [1]: 1.4 nM | Ratio IC50 (Homo sapiens): 2.36 | IC50 [2]: 3.3 nM

CCS(=O)(=O)Nc1ccc(Oc2c(OC)cccc2OC)c(-c2cn(C)c(=O)c3cc(-c4cc(C)c(OCCO)c(C)c4)oc23)c1
IC50 [1]: 2 nM | Ratio IC50 (Homo sapiens): 4.9 | IC50 [2]: 9.8 nM

CCS(=O)(=O)Nc1ccc(Oc2ccc(F)cc2F)c(-c2cn(C)c(=O)c3cc(-c4cc(C)cc(C)c4)oc23)c1
IC50 [1]: 3.7 nM | Ratio IC50 (Homo sapiens): 1.65 | IC50 [2]: 6.1 nM

Cc1cc(F)cc(C)c1Oc1ccc(C(C)(C)O)cc1-c1cn(C)c(=O)c2cc(-c3cnc(C(C)C)[nH]3)oc12
IC50 [1]: 0.68 nM | Ratio IC50 (Homo sapiens): 282 | IC50 [2]: 192 nM

CCS(=O)(=O)Nc1ccc(Oc2ccc(F)cc2F)c(-c2cn(C)c(=O)c3cc(-c4ccc(CCCO)cc4)oc23)c1
IC50 [1]: 0.41 nM | Ratio IC50 (Homo sapiens): 1.83 | IC50 [2]: 0.75 nM

CCc1cccc(CC)c1Oc1ccc(NS(=O)(=O)CC)cc1-c1cn(C)c(=O)c2cc(-c3cc(C)c(OCCO)c(C)c3)oc12
IC50 [1]: 9.7 nM | Ratio IC50 (Homo sapiens): 6.29 | IC50 [2]: 61 nM

CCc1ncc(-c2cc3c(=O)n(C)cc(-c4cc(NS(=O)(=O)CC)ccc4Oc4ccc(F)cc4F)c3o2)[nH]1
IC50 [1]: 0.5 nM | Ratio IC50 (Homo sapiens): 2.4 | IC50 [2]: 1.2 nM

CCS(=O)(=O)Nc1ccc(Oc2ccc(F)cc2F)c(-c2cn(C)c(=O)c3cc(-c4ccccc4)oc23)c1
IC50 [1]: 1.5 nM | Ratio IC50 (Homo sapiens): 1.6 | IC50 [2]: 2.4 nM

CC(=O)Nc1ccc(Oc2ccc(F)cc2F)c(-c2cn(C)c(=O)c3cc(-c4cc(C)c(OCCO)c(C)c4)oc23)c1
IC50 [1]: 0.83 nM | Ratio IC50 (Homo sapiens): 0.63 | IC50 [2]: 0.52 nM

Cc1cc(F)cc(C)c1Oc1ccc(C(C)(C)O)cc1-c1cn(C)c(=O)c2cc(-c3cnc(C4CCOCC4)[nH]3)oc12
IC50 [1]: 0.46 nM | Ratio IC50 (Homo sapiens): 130 | IC50 [2]: 60 nM

CCS(=O)(=O)Nc1ccc(Oc2ccc(F)cc2F)c(-c2cn(C)c(=O)c3cc(-c4cnc(C5CCCC5)[nH]4)oc23)c1
IC50 [1]: 0.91 nM | Ratio IC50 (Homo sapiens): 4.52 | IC50 [2]: 4.1 nM

Cc1cc(-c2cc3c(=O)n(C)cc(-c4cc(NS(C)(=O)=O)ccc4Oc4ccc(F)cc4F)c3o2)cc(C)c1OCCO
IC50 [1]: 0.76 nM | Ratio IC50 (Homo sapiens): 0.51 | IC50 [2]: 0.39 nM

Cc1cc(F)cc(C)c1Oc1ccc(C(C)(C)O)cc1-c1cn(C)c(=O)c2cc(-c3cnc(C4CCOC4)[nH]3)oc12 (centres undefined)
IC50 [1]: 0.6 nM | Ratio IC50 (Homo sapiens): 130 | IC50 [2]: 78 nM

CCCS(=O)(=O)Nc1ccc(Oc2ccc(F)cc2F)c(-c2cn(C)c(=O)c3cc(-c4cc(C)c(OCCO)c(C)c4)oc23)c1
IC50 [1]: 0.65 nM | Ratio IC50 (Homo sapiens): 1.54 | IC50 [2]: 0.94 nM

CCS(=O)(=O)Nc1ccc(Oc2c(C)cccc2C)c(-c2cn(C)c(=O)c3cc(-c4cc(C)c(OCCO)c(C)c4)oc23)c1
IC50 [1]: 1.3 nM | Ratio IC50 (Homo sapiens): 4.62 | IC50 [2]: 6 nM

CCS(=O)(=O)Cc1ccc(Oc2ccc(F)cc2F)c(-c2cn(C)c(=O)c3cc(-c4cc(C)c(OCCO)c(C)c4)oc23)c1
IC50 [1]: 0.55 nM | Ratio IC50 (Homo sapiens): 0.6 | IC50 [2]: 0.33 nM

CCS(=O)(=O)Nc1ccc(Oc2ccc(F)cc2F)c(-c2cn(C)c(=O)c3cc(-c4cnc[nH]4)oc23)c1
IC50 [1]: 0.51 nM | Ratio IC50 (Homo sapiens): 2.35 | IC50 [2]: 1.2 nM

Cc1cc(-c2cc3c(=O)n(C)cc(-c4cc(NC(=O)C5CC5)ccc4Oc4ccc(F)cc4F)c3o2)cc(C)c1OCCO
IC50 [1]: 3.2 nM | Ratio IC50 (Homo sapiens): 2.12 | IC50 [2]: 6.8 nM

CCS(=O)(=O)Nc1ccc(Oc2c(C)cc(F)cc2C)c(-c2cn(C)c(=O)c3cc(-c4cc(C)c(OCCO)c(C)c4)oc23)c1
IC50 [1]: 0.8 nM | Ratio IC50 (Homo sapiens): 8.12 | IC50 [2]: 6.5 nM

CCS(=O)(=O)Nc1ccc(Oc2c(F)cc(F)cc2F)c(-c2cn(C)c(=O)c3cc(-c4cc(C)c(OCCO)c(C)c4)oc23)c1
IC50 [1]: 0.49 nM | Ratio IC50 (Homo sapiens): 0.88 | IC50 [2]: 0.43 nM

CCC(=O)Nc1ccc(Oc2ccc(F)cc2F)c(-c2cn(C)c(=O)c3cc(-c4cc(C)c(OCCO)c(C)c4)oc23)c1
IC50 [1]: 0.72 nM | Ratio IC50 (Homo sapiens): 3.19 | IC50 [2]: 2.3 nM

Cc1cc(-c2cc3c(=O)n(C)cc(-c4cc(C(C)(C)O)ccc4Oc4c(C)cc(F)cc4C)c3o2)cc(C)c1OCCCO
IC50 [1]: 1.4 nM | Ratio IC50 (Homo sapiens): 45 | IC50 [2]: 63 nM

Cc1cc(-c2cc3c(=O)n(C)cc(-c4cc(NS(=O)(=O)C5CC5)ccc4Oc4ccc(F)cc4F)c3o2)cc(C)c1OCCO
IC50 [1]: 1 nM | Ratio IC50 (Homo sapiens): 1 | IC50 [2]: 1 nM

CCS(=O)(=O)Nc1ccc(Oc2ccc(F)cc2F)c(-c2cn(C)c(=O)cc2OCc2ccccc2)c1
IC50 [1]: 0.92 nM

Cc1cc(-c2cc3c(=O)n(C)cc(-c4cc(NS(=O)(=O)C(C)C)ccc4Oc4ccc(F)cc4F)c3o2)cc(C)c1OCCO
IC50 [1]: 0.94 nM | Ratio IC50 (Homo sapiens): 1.49 | IC50 [2]: 1.4 nM

Cc1cc(-c2cc3c(=O)n(C)cc(-c4cc(CO)ccc4Oc4ccc(F)cc4F)c3o2)cc(C)c1OCCO
IC50 [1]: 0.98 nM | Ratio IC50 (Homo sapiens): 4.18 | IC50 [2]: 4.1 nM

Cc1sc2c(c1C)C(c1ccc(Cl)cc1)=N[C@@H](CC(=O)OC(C)(C)C)c1nnc(C)n1-2
ΔTm [3]: 0.25 °C | ΔTm [4]: -0.25 °C | ΔTm [5]: -1 °C

CCc1cccc(C)c1Oc1ccc(NS(=O)(=O)CC)cc1-c1cn(C)c(=O)c2cc(-c3cc(C)c(OCCO)c(C)c3)oc12
IC50 [1]: 1.4 nM | Ratio IC50 (Homo sapiens): 7.14 | IC50 [2]: 10 nM

CCS(=O)(=O)Nc1ccc(Oc2ccc(F)cc2F)c(-c2cn(C)c(=O)c3cc(-c4ccc(OCCO)cc4)oc23)c1
IC50 [1]: 0.62 nM | Ratio IC50 (Homo sapiens): 0.9 | IC50 [2]: 0.56 nM

Cc1cc(-c2cc3c(=O)n(C)cc(-c4cc(CS(=O)(=O)C(C)C)ccc4Oc4ccc(F)cc4F)c3o2)cc(C)c1OCCO
IC50 [1]: 0.62 nM | Ratio IC50 (Homo sapiens): 0.92 | IC50 [2]: 0.57 nM

CCS(=O)(=O)Nc1ccc(Oc2ccc(F)cc2F)c(-c2cn(C)c(=O)c3cc(-c4cnc(C5CC5)[nH]4)oc23)c1
IC50 [1]: 0.34 nM | Ratio IC50 (Homo sapiens): 2.06 | IC50 [2]: 0.7 nM

CCS(=O)(=O)Nc1ccc(Oc2ccc(F)cc2F)c(-c2cn(C)c(=O)c3cc(-c4cc(C)c(OCCO)c(C)c4)oc23)c1
IC50 [1]: 0.6 nM | Ratio IC50 (Homo sapiens): 0.93 | IC50 [2]: 0.56 nM | IC50 at 72 h [6]: < 10 nM

Cc1cc(-c2cc3c(=O)n(C)cc(-c4cc(C(C)(C)O)ccc4Oc4ccc(F)cc4F)c3o2)cc(C)c1OCCO
IC50 [1]: 0.45 nM | Ratio IC50 (Homo sapiens): 3.5 | IC50 [2]: 1.57 nM

Cc1cc(-c2cc3c(=O)n(C)cc(-c4cc(NC(=O)C(C)C)ccc4Oc4ccc(F)cc4F)c3o2)cc(C)c1OCCO
IC50 [1]: 1.9 nM | Ratio IC50 (Homo sapiens): 4.11 | IC50 [2]: 7.8 nM

CCS(=O)(=O)Nc1ccc(Oc2ccc(F)cc2F)c(-c2cn(C)c(=O)c3cc(-c4cnc(C5CCC5)[nH]4)oc23)c1
IC50 [1]: 0.94 nM | Ratio IC50 (Homo sapiens): 2.13 | IC50 [2]: 2 nM

CCS(=O)(=O)Nc1ccc(Oc2ccc(F)cc2F)c(-c2cn(C)c(=O)c3cc(-c4cnc(C(C)C)[nH]4)oc23)c1
IC50 [1]: 0.54 nM | Ratio IC50 (Homo sapiens): 1.76 | IC50 [2]: 0.95 nM

CCS(=O)(=O)Nc1ccc(Oc2ccc(F)cc2F)c(-c2cn(C)c(=O)c3cc(-c4cnc(C)[nH]4)oc23)c1
IC50 [1]: 0.76 nM | Ratio IC50 (Homo sapiens): 0.7 | IC50 [2]: 0.53 nM

O=C(c1ccc(F)cc1)C1CCN(CCn2c(=O)[nH]c3ccccc3c2=O)CC1 [KETANSERIN]
CLH [7]: 0.051 mL/min/g | CLhep predicted at 1 µM [8]: 14.7 mL/min/kg | half-life at 1 µM [9]: 34 min | CLhep predicted at 1 µM [10]: 25 mL/min/kg | CLH [11]: 0.131 mL/min/g | hepatic extraction ratio at 1 h, 1 µM [12]: 0.712 | hepatic extraction ratio at 1 h, 1 µM [13]: 0.81 | half-life at 1 µM [14]: 18.9 min

CCS(=O)(=O)Nc1ccc(Oc2ccc(F)cc2F)c(-c2cn(C)c(=O)c3cc(-c4cc(C)c(CCCO)c(C)c4)oc23)c1
IC50 [1]: 0.49 nM | Ratio IC50 (Homo sapiens): 1.47 | IC50 [2]: 0.72 nM

CCc1ncc(-c2cc3c(=O)n(C)cc(-c4cc(C(C)(C)O)ccc4Oc4c(C)cc(F)cc4C)c3o2)[nH]1
IC50 [1]: 0.6 nM | Ratio IC50 (Homo sapiens): 202 | IC50 [2]: 121 nM
